Reference: patent US4956504A, “Novel spergualin-related compounds and process for producing the same” (Zaidan Hojin Biseibutsu Kagaku Kenkyu Kai, priority 1986, dated 1990)
Structures can show the parent of a compound that is named as a salt.

How the values were obtained:
[1] = test system: antibody formation (anti-SRBC plaque-forming cells); test: Inhibitory activity against antibody formation (anti-SRBC plaque-forming cells in spleen); type: in vivo, mouse (CDF1-SLC female); conditions: once a day for three consecutive days, minus shows an increase of antibody formation
Protocol: (b) Inhibitory activity against antibody formation
Test groups and a control group of CDF1 -SLC female mice (each group: five mice) were intravenously sensitized with 1×10^8 /0.2 ml of sheep red blood cells (SRBC). A compound of the present invention was dissolved in a physiological saline solution in various concentrations. Each of the resulting solutions was administered to one of the test groups once a day for three consecutive days from the next day of the sensitization, in an amount of 0.1 ml/10 g (body weight)/day. The physiological saline solution was administered to the control group.
In the fourth day from the sensitization, all the mice were killed and the number of anti-SRBC plaque-forming cells (PFC) in the spleen cells of each mouse was measured. From this number, the PFC number per 10^6 of spleen cells was calculated. The effect of the present compound was expressed as an inhibition percentage (%) of PFC number of test group as compared with control group. [formula]
(§1) In Tables and 5, a control compound is included. This compound is such that in the general formula [I], X is [drawing 59] R is --CH2 OH and both of R1 and R2 are --H.

mouse leukemia L1210 = test: Life prolongation effect to mouse leukemia L1210; type: in vivo, mouse (CDF1-SLC female); conditions: once a day for nine consecutive days, 125 or more is effective, read-out: T/C × 100 (life prolongation percentage); for response vs control in vivo at 0.39 mg/kg: 0.39 mg/kg/day; for response vs control in vivo at 0.78 mg/kg: 0.78 mg/kg/day; for response vs control in vivo at 1.56 mg/kg: 1.56 mg/kg/day; for response vs control in vivo at 3.13 mg/kg: 3.13 mg/kg/day; for response vs control in vivo at 6.25 mg/kg: 6.25 mg/kg/day; for response vs control in vivo at 12.5 mg/kg: 12.50 mg/kg/day; for response vs control in vivo at 25 mg/kg: 25.00 mg/kg/day; for response vs control in vivo at 50 mg/kg: 50.00 mg/kg/day
Protocol: 3. Life prolongation effect of present compound to mouse leukemia cells L1210 and its toxicity
1×10^5 /0.2 ml/mouse of mouse leukemia cells L1210 were intraperitoneally transplanted to test groups and a control group of CDF1 -SLC female mice (each group: four mice). A compound of the present invention was dissolved in a physiological saline solution in various concentrations and each of the resulting solutions was administered to one of the test groups once a day for nine consecutive days from the next day of the transplantation, in an amount of 0.1 ml/10 g (body weight)/day. The physiological saline solution was administered to the control group.
All the mice of the test groups and the control group were observed from the next day of the L1210 transplantation to examine their days of survival, and the average days of survival (T) of each test group and the average days of survival (C) of the control group were calculated. The life prolongation percentage of the present compound was expressed as (T/C)×100.
It is believed that a (T/C)×100 of 125 or more is effective.
as §1

mice = test: Acute toxicity: administration amount causing acute death to mice; type: in vivo
Protocol: A compound of the present invention was dissolved in a physiological saline solution in various concentrations. Each of the resulting solutions was intraperitoneally administered to one of CDF1 -SLC female mice (one group: two to three mice) in an amount of 0.1 ml per 10 g of body weight. The highest concentration of present compound in solution was 400 mg/10 ml/kg, and starting from this solution of highest concentration, solutions of lower concentrations were prepared each time at a common ratio of 2. The administration amount of present compound with the lowest concentration solution with which at least one mouse died was taken as an administration amount of acute toxicity.
as §1

[2] = Administration amount 1.56 mg/kg
[3] = Administration amount 6.25 mg/kg
[4] = intraperitoneal, single, lowest amount with which at least one mouse died

Row | Structure (SMILES) | Inhibitory percentage (antibody formation, PFC number vs control group) [1, 2] | Inhibitory percentage (antibody formation, PFC number vs control group) [1, 3] | response vs control in vivo at 0.39 mg/kg (mouse leukemia L1210) | response vs control in vivo at 0.78 mg/kg (mouse leukemia L1210) | response vs control in vivo at 1.56 mg/kg (mouse leukemia L1210) | response vs control in vivo at 3.13 mg/kg (mouse leukemia L1210) | response vs control in vivo at 6.25 mg/kg (mouse leukemia L1210) | response vs control in vivo at 12.5 mg/kg (mouse leukemia L1210) | response vs control in vivo at 25 mg/kg (mouse leukemia L1210) | response vs control in vivo at 50 mg/kg (mouse leukemia L1210) | Administration amount causing acute death to mice (mice; mouse, in vivo, ip) | Administration amount causing acute death to mice (mice; [4]) | response vs control in vivo at 0.2 mg/kg (mouse leukemia L1210; 0.20 mg/kg/day) | response vs control in vivo at 100 mg/kg (mouse leukemia L1210; 100.00 mg/kg/day)
1 | CC(C)C[C@H](NC(=O)[C@@H](N)CC(C)C)C(=O)NCCCNCCCCNC(=O)[C@H](CO)NC(=O)CCCc1ccc(NC(=N)N)cc1 [Compound No. 13, 10-{N-[4-(4-GP)butanoyl]-L-Ser}-1-L-Leu-L-Leu-1,5,10-TAD trihydrochloride] | 53% | 88% | 132% | 149% | 201% | 283% | 247% | 257% | 274% | 303% | 100 mg/kg | – | – | –
2 | N=C(N)Nc1ccc(CCCC(=O)N[C@@H](CO)C(=O)NCCCCNCCCNC(=O)[C@@H](N)c2ccccc2)cc1 [Compound No. 1, 10-{N-[4-(4-GP)butanoyl]-L-Ser}-1-L-PhG-1,5,10-TAD trihydrochloride] | 87% | 97% | 146% | 195% | 296% | 269% | 315% | 278% | 294% | 327% | 100 mg/kg | – | – | –
3 | N=C(N)Nc1ccc(CCCC(=O)N[C@@H](CO)C(=O)NCCCCN(CCCNC(=O)[C@@H](N)c2ccccc2)C(=O)[C@@H](N)c2ccccc2)cc1 [Compound No. 14, 10-{N-[4-(4-GP)butanoyl]-L-Ser}-1,5-di-L-PhG-1,5,10-TAD trihydrochloride] | -50% | -75% | – | – | – | – | – | – | – | – | 200 mg/kg | – | – | –
4 | N=C(N)Nc1ccc(CCCC(=O)N[C@@H](CO)C(=O)NCCCCNCCCNC(=O)[C@@H](N)CC(=O)O)cc1 [Compound No. 7, 10-{N-[4-(4-GP)butanoyl]-L-Ser}-1-L-Asp-1,5,10-TAD trihydrochloride] | – | – | 96% | 86% | 99% | 152% | 216% | 265% | 284% | 284% | 100 mg/kg | – | – | –
5 | N=C(N)Nc1ccc(CCCC(=O)N[C@@H](CO)C(=O)NCCCCNCCCNC(=O)[C@@H]2CCCN2)cc1 [Compound No. 10, 10-{N-[4-(4-GP)butanoyl-L-Ser}-1-L-Pro-1,5,10-TAD trihydrochloride] | – | – | – | – | – | – | – | – | – | – | – | 100 mg/kg | – | –
6 | CC(C)C[C@@H](N)C(=O)NCCCNCCCCNC(=O)[C@H](CO)NC(=O)CCCc1ccc(NC(=N)N)cc1 [Compound No. 3, 10-{N-[4-(4-GP)butanoyl]-L-Ser}-1-D-Leu-1,5,10-TAD trihydrochloride] | – | – | – | – | – | – | – | – | – | – | – | 100 mg/kg | – | –
7 | N=C(N)Nc1ccc(CCCC(=O)N[C@@H](CO)C(=O)NCCCCNCCCNC(=O)[C@H](N)c2ccccc2)cc1 [Compound No. 4, trihydrochloride] | 68% | 95% | 125% | 149% | 195% | 228% | 237% | 243% | 247% | 197% | 100 mg/kg | – | – | –
8 | N=C(N)Nc1ccc(CCCC(=O)N[C@@H](CO)C(=O)NCCCCNCCCNC(=O)[C@@H](O)[C@H](N)Cc2ccccc2)cc1 [Compound No. 12, 10-{N-[4-(4-GP)butanoyl]-L-Ser}-1-[(2S, 3R)-AHPA]-1,5,10-TAD trihydrochloride] | – | – | – | – | – | – | – | – | – | – | – | 100 mg/kg | – | –
9 | C[C@H](N)C(=O)NCCCNCCCCNC(=O)[C@H](CO)NC(=O)CCCc1ccc(NC(=N)N)cc1 [Compound No. 8, 10-{N-[4-(4-GP)butanoyl]-L-Ser}-1-L-Ala-1,5,10-TAD trihydrochloride] | – | – | 102% | 130% | 164% | 312% | 272% | 290% | 362% | – | – | – | 109% | –
10 | N=C(N)Nc1ccc(CCCC(=O)N[C@@H](CO)C(=O)NCCCCNCCCNC(=O)[C@@H](N)CO)cc1 [Compound No. 9, 10-{N-[4-(4-GP)butanoyl]-L-Ser}-1-L-Ser-1,5,10-TAD trihydrochloride] | – | – | – | 118% | 125% | 155% | 191% | 276% | 241% | 250% | > 100 mg/kg | – | – | 103%
11 | N=C(N)Nc1ccc(CCCC(=O)N[C@@H](CO)C(=O)NCCCCNCCCNC(=O)[C@@H](N)Cc2ccccc2)cc1 [Compound No. 5, 10-{N-[4-(4-GP)butanoyl]-L-Ser}-1-L-Phe-1,5,10-TAD trihydrochloride] | – | – | 123% | 133% | 146% | 265% | 290% | 290% | 284% | 253% | 100 mg/kg | – | – | –
12 | CC(C)C[C@H](N)C(=O)NCCCNCCCCNC(=O)[C@H](CO)NC(=O)CCCc1ccc(NC(=N)N)cc1 [Compound No. 2, 10-{N-[4-(4-GP)butanoyl)-L-Ser}-1-L-] | 60% | 92% | 136% | 152% | 244% | 331% | 300% | 272% | 281% | 53% | – | – | – | –
13 | N=C(N)Nc1ccc(CCCC(=O)N[C@@H](CO)C(=O)NCCCCNCCCNC(=O)[C@@H](N)Cc2ccc(O)cc2)cc1 [Compound No. 6, 10-{N-[4-(4-GP)butanoyl]-L-Ser}-1-L-Tyr-1,5,10-TAD trihydrochloride] | – | – | 125% | 158% | 201% | 267% | 250% | 250% | 270% | 162% | 100 mg/kg | – | – | –
